The supplement of paper PMC10307832

Columns and labels:
Test in all cases: relative viability (nuclei count vs DMSO), 5 days (fraction); higher = more cells survive
Adavosertib + Vorinostat = compound: C=CCn1c(=O)c2cnc(Nc3ccc(N4CCN(C)CC4)cc3)nc2n1-c1cccc(C(C)(C)O)n1 [Adavosertib] + O=C(CCCCCCC(=O)Nc1ccccc1)NO [Vorinostat] (partner 1 µM)
In short: (§1)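 The day after seeding in 1536-well plates, lung cancer cell lines were treated by pin tool with a single drug, or with a fixed anchor-drug dose together with five library-drug doses (not always all listed) in √10 steps. After 5 days, a combined fix-and-stain solution (final 0.05% Triton X-100, 1% formaldehyde, 1 ug/ml Hoechst) was added. Nuclei counted on 4× images gave relative viability as treated counts over vehicle counts, reported as the median of duplicate plates.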

Nelarabine + Linsitinib = compound: COc1nc(N)nc2c1ncn2[C@@H]1O[C@H](CO)[C@@H](O)[C@@H]1O [Nelarabine] + C[C@]1(O)C[C@@H](c2nc(-c3ccc4ccc(-c5ccccc5)nc4c3)c3c(N)nccn32)C1 [Linsitinib] (partner 1 µM)
In short: as §1

Nelarabine + Olaparib = compound: COc1nc(N)nc2c1ncn2[C@@H]1O[C@H](CO)[C@@H](O)[C@@H]1O [Nelarabine] + O=C(c1cc(Cc2n[nH]c(=O)c3ccccc23)ccc1F)N1CCN(C(=O)C2CC2)CC1 [Olaparib] (partner 8 µM)
In short: as §1

Nelarabine + Luminespib = compound: COc1nc(N)nc2c1ncn2[C@@H]1O[C@H](CO)[C@@H](O)[C@@H]1O [Nelarabine] + CCNC(=O)c1noc(-c2cc(C(C)C)c(O)cc2O)c1-c1ccc(CN2CCOCC2)cc1 [Luminespib] (partner 0.01 µM)
In short: as §1

Cell Line | relative viability (Adavosertib + Vorinostat; first compound 0.01 µM) | relative viability (Adavosertib + Vorinostat; first compound 0.03162 µM) | relative viability (Adavosertib + Vorinostat; first compound 0.1 µM) | relative viability (Adavosertib + Vorinostat; first compound 0.3162 µM) | relative viability (Nelarabine + Linsitinib; first compound 0.01 µM) | relative viability (Nelarabine + Linsitinib; first compound 0.03162 µM) | relative viability (Nelarabine + Linsitinib; first compound 0.1 µM) | relative viability (Nelarabine + Linsitinib; first compound 0.3162 µM) | relative viability (Nelarabine + Linsitinib; first compound 1 µM) | relative viability (Nelarabine + Olaparib; first compound 0.01 µM) | relative viability (Nelarabine + Olaparib; first compound 0.03162 µM) | relative viability (Nelarabine + Olaparib; first compound 0.1 µM) | relative viability (Nelarabine + Olaparib; first compound 0.3162 µM) | relative viability (Nelarabine + Olaparib; first compound 1 µM) | relative viability (Nelarabine + Luminespib; first compound 0.01 µM) | relative viability (Nelarabine + Luminespib; first compound 0.03162 µM) | relative viability (Nelarabine + Luminespib; first compound 0.1 µM) | relative viability (Nelarabine + Luminespib; first compound 0.3162 µM) | relative viability (Nelarabine + Luminespib; first compound 1 µM)
LC-2-ad | 0.708 | 0.661 | 0.736 | 0.704 | 0.919 | 0.832 | 0.823 | 0.758 | 0.797 | 0.748 | 0.39 | 0.668 | 0.753 | 0.701 | 1.1 | 1.09 | 0.932 | 1.08 | 0.916
LCLC-103H | 0.834 | 0.78 | 0.755 | 0.739 | 1.22 | 1.11 | 1.08 | 1.02 | 1.11 | 0.951 | 0.754 | 0.838 | 0.762 | 0.815 | 1.26 | 0.905 | 0.969 | 1.06 | 0.99
NCI-H727 | 0.934 | 1.13 | 1.13 | 1.15 | 0.28 | 0.331 | 0.299 | 0.306 | 0.271 | 0.697 | 0.559 | 0.636 | 0.731 | 0.656 | 0.305 | 0.377 | 0.351 | 0.469 | 0.298
HCC-827 | 0.716 | 0.868 | 0.873 | 0.885 | 0.922 | 0.826 | 0.877 | 0.772 | 0.666 | 0.673 | 0.622 | 0.571 | 0.571 | 0.463 | 0.889 | 0.68 | 0.644 | 0.511 | 0.385
NCI-H2023 | 0.671 | 0.494 | 0.348 | 0.16 | 0.7 | 0.854 | 0.554 | 0.625 | 0.561 | 0.597 | 0.497 | 0.503 | 0.422 | 0.455 | 1.07 | 0.596 | 0.905 | 0.834 | 0.7
